Experimental data: ChEMBL document CHEMBL4507259 (2021)

Assays:
[1] = target: Mitogen-activated protein kinase kinase kinase 20 (Homo sapiens) (UniProt Q9NYL2); conditions: Compound concentration 1000.0 nM
[2] = test system: Receptor-type tyrosine-protein kinase FLT3 (Homo sapiens), P36888 [N841I]; conditions: Compound concentration 1000.0 nM
[3] = target: Epidermal growth factor receptor (Homo sapiens) (UniProt P00533); conditions: Compound concentration 1000.0 nM
[4] = target: Citron Rho-interacting kinase (Homo sapiens) (UniProt O14578); conditions: Compound concentration 1000.0 nM
[5] = target: Casein kinase I isoform gamma-2 (Homo sapiens) (UniProt P78368); conditions: Compound concentration 1000.0 nM
[6] = target: TRAF2 and NCK-interacting protein kinase (Homo sapiens) (UniProt Q9UKE5); conditions: Compound concentration 1000.0 nM
[7] = target: Calcium/calmodulin-dependent protein kinase kinase 1 (Homo sapiens) (UniProt Q8N5S9); conditions: Compound concentration 1000.0 nM
[8] = target: Serine/threonine-protein kinase LATS1 (Homo sapiens) (UniProt O95835); conditions: Compound concentration 1000.0 nM
[9] = target: Macrophage colony-stimulating factor 1 receptor (Homo sapiens) (UniProt P07333); conditions: Compound concentration 1000.0 nM
[10] = target: Substance-P receptor (Homo sapiens) (UniProt P25103); assay: NK1 (h) CEREP ligand profiling; conditions: filed as agonist, Compound concentration 10.0 uM
[11] = target: T1, Alpha-2A adrenergic receptor (Homo sapiens) (UniProt P08913); assay: alpha 2A (h) CEREP ligand profiling; conditions: filed as antagonist, Compound concentration 10.0 uM
T1 sequence (whole entry): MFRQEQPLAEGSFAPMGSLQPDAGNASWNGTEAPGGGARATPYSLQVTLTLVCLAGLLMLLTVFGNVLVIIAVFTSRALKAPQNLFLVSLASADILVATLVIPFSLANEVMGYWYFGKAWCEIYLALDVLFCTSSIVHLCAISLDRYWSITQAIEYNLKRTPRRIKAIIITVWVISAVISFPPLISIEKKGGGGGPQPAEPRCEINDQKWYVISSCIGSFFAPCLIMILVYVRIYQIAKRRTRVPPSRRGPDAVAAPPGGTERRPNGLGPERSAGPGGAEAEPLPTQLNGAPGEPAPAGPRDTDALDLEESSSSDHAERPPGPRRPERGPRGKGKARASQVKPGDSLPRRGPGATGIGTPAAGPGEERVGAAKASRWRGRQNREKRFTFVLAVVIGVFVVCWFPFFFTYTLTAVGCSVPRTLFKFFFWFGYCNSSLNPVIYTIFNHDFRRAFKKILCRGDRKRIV

[12] = target: Rho-associated protein kinase 2 (Homo sapiens) (UniProt O75116); conditions: Compound concentration 1000.0 nM
[13] = target: D(1B) dopamine receptor (Homo sapiens) (UniProt P21918); conditions: Compound concentration 10.0 uM
[14] = target: Mitogen-activated protein kinase kinase kinase 7 (Homo sapiens) (UniProt O43318); conditions: Compound concentration 1000.0 nM
[15] = test system: Phosphatidylinositol 4,5-bisphosphate 3-kinase catalytic subunit alpha isoform (Homo sapiens), P42336 [E542K]; conditions: Compound concentration 1000.0 nM
[16] = target: Serine/threonine-protein kinase D2 (Homo sapiens) (UniProt Q9BZL6); conditions: Compound concentration 1000.0 nM
[17] = target: Ribosomal protein S6 kinase alpha-1 (Homo sapiens) (UniProt Q15418); conditions: Compound concentration 1000.0 nM
[18] = target: Glycogen synthase kinase-3 beta (Homo sapiens) (UniProt P49841); conditions: Compound concentration 1000.0 nM
[19] = target: Serine/threonine-protein kinase DCLK3 (Homo sapiens) (UniProt Q9C098); conditions: Compound concentration 1000.0 nM
[20] = test system: Mast/stem cell growth factor receptor Kit (Homo sapiens), P10721 [D816V]; conditions: Compound concentration 1000.0 nM
[21] = target: Serine/threonine-protein kinase TAO3 (Homo sapiens) (UniProt Q9H2K8); conditions: Compound concentration 1000.0 nM
[22] = target: Ribosomal protein S6 kinase alpha-5 (Homo sapiens) (UniProt O75582); conditions: Compound concentration 1000.0 nM
[23] = target: SRSF protein kinase 3 (Homo sapiens) (UniProt Q9UPE1); conditions: Compound concentration 1000.0 nM
[24] = target: Cyclin-dependent kinase 11A (Homo sapiens) (UniProt Q9UQ88); conditions: Compound concentration 1000.0 nM
[25] = target: D(1A) dopamine receptor (Homo sapiens) (UniProt P21728); conditions: Compound concentration 10.0 uM
[26] = target: Casein kinase II subunit alpha' (Homo sapiens) (UniProt P19784); conditions: Compound concentration 1000.0 nM
[27] = target: Serine/threonine-protein kinase MRCK gamma (Homo sapiens) (UniProt Q6DT37); conditions: Compound concentration 1000.0 nM
[28] = target: Serine/threonine-protein kinase OSR1 (Homo sapiens) (UniProt O95747); conditions: Compound concentration 1000.0 nM
[29] = target: Serine/threonine-protein kinase 38 (Homo sapiens) (UniProt Q15208); conditions: Compound concentration 1000.0 nM
[30] = target: Serine/threonine-protein kinase ULK2 (Homo sapiens) (UniProt Q8IYT8); conditions: Compound concentration 1000.0 nM
[31] = target: Serine/threonine-protein kinase MARK1 (Homo sapiens) (UniProt Q9P0L2); conditions: Compound concentration 1000.0 nM
[32] = target: T2, Muscarinic acetylcholine receptor M4 (Homo sapiens) (UniProt P08173); conditions: Compound concentration 10.0 uM
T2 sequence (whole entry): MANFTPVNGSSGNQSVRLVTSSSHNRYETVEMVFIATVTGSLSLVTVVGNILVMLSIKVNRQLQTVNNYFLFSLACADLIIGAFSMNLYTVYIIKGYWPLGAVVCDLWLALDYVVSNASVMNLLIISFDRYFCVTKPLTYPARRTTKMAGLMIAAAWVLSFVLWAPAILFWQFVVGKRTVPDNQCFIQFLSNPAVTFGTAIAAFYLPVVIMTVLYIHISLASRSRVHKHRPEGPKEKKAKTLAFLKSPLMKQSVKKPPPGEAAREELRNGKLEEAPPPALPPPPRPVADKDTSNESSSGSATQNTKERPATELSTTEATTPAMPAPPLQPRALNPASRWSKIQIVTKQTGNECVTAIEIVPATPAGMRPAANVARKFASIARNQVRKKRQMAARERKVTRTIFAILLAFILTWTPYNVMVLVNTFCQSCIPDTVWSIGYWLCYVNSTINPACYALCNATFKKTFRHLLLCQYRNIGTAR

TRAF2 and NCK-interacting protein kinase (Homo sapiens), sequence (Q9UKE5 whole entry, looked up): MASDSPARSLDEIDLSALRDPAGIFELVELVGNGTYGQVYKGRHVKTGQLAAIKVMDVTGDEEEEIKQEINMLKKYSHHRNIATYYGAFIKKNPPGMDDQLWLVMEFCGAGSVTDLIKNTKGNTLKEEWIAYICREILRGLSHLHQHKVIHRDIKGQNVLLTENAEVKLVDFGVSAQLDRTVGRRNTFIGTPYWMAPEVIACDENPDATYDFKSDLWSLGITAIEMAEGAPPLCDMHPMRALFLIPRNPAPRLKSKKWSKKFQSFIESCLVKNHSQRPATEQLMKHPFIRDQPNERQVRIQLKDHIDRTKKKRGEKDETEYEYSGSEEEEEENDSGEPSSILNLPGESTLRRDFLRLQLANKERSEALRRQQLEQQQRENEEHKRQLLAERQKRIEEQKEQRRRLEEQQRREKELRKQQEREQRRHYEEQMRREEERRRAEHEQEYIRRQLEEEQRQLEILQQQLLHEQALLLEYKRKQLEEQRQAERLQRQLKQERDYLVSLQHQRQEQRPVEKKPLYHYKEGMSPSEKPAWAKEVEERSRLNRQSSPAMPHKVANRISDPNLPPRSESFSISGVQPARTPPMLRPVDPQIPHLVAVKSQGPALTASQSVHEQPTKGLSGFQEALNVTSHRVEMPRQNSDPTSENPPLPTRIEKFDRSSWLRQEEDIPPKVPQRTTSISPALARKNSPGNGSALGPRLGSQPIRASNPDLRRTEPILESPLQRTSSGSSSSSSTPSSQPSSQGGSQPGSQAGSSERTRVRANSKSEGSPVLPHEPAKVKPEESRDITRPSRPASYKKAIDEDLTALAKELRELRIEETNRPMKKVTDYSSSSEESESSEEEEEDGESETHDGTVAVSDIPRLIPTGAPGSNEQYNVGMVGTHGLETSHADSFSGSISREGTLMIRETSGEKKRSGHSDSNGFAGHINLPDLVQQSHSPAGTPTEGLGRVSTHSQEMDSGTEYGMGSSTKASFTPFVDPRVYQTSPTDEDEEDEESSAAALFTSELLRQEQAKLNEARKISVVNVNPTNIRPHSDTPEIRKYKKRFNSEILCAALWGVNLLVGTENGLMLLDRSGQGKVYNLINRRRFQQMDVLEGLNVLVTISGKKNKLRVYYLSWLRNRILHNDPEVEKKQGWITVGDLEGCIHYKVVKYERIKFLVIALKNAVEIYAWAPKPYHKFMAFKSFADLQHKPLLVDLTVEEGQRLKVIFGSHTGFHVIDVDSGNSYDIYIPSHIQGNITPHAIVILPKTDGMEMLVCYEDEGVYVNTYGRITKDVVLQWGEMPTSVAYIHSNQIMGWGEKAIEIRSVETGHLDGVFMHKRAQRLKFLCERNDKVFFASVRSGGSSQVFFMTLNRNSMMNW
Casein kinase II subunit alpha' (Homo sapiens), sequence (P19784 whole entry, looked up): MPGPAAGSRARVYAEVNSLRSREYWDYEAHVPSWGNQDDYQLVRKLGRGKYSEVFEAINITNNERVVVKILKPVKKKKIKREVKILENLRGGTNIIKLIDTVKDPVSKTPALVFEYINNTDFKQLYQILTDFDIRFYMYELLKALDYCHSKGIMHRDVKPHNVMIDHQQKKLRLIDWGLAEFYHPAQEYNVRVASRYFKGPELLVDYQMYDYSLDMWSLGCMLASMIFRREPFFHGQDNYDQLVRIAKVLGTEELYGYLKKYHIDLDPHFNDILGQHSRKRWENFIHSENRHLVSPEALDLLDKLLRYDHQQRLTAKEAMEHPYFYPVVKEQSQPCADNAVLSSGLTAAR
D(1B) dopamine receptor (Homo sapiens), sequence (P21918 whole entry): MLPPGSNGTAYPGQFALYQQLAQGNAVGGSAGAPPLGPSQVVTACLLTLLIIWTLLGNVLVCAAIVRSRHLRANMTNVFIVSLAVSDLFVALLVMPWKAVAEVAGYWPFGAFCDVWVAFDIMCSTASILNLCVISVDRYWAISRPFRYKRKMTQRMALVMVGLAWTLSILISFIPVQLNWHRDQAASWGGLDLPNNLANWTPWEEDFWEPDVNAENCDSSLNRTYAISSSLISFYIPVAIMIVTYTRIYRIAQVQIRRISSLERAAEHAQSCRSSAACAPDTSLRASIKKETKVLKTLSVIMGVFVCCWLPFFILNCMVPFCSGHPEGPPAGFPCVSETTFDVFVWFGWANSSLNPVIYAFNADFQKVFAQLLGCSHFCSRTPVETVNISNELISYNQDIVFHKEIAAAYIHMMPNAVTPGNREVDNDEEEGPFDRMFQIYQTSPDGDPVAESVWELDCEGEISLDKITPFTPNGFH
Casein kinase I isoform gamma-2 (Homo sapiens), sequence (P78368 whole entry, looked up, canonical isoform): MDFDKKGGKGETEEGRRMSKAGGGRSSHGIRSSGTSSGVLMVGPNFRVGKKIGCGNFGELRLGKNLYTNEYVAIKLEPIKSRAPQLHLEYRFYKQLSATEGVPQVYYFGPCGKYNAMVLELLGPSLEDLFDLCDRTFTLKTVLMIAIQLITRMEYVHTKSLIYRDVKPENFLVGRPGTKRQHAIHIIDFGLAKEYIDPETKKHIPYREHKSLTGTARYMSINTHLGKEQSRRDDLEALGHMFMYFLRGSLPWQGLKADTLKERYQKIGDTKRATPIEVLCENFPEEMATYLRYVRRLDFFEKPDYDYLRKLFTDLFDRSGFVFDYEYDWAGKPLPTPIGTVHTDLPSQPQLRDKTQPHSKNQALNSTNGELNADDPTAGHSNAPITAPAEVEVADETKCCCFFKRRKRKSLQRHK
Substance-P receptor (Homo sapiens), sequence (P25103 whole entry): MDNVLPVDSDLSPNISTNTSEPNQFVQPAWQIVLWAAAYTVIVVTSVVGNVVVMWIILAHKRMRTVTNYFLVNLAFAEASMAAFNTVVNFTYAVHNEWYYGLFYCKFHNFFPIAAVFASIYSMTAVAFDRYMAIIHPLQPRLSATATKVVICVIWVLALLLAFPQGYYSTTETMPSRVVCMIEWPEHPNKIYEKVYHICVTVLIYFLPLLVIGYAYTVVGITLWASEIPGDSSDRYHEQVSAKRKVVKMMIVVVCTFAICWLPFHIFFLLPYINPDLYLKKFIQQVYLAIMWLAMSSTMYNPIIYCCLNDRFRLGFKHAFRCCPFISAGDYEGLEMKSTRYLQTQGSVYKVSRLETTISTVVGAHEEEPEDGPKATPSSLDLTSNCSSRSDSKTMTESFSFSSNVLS
Epidermal growth factor receptor (Homo sapiens), sequence (P00533 whole entry): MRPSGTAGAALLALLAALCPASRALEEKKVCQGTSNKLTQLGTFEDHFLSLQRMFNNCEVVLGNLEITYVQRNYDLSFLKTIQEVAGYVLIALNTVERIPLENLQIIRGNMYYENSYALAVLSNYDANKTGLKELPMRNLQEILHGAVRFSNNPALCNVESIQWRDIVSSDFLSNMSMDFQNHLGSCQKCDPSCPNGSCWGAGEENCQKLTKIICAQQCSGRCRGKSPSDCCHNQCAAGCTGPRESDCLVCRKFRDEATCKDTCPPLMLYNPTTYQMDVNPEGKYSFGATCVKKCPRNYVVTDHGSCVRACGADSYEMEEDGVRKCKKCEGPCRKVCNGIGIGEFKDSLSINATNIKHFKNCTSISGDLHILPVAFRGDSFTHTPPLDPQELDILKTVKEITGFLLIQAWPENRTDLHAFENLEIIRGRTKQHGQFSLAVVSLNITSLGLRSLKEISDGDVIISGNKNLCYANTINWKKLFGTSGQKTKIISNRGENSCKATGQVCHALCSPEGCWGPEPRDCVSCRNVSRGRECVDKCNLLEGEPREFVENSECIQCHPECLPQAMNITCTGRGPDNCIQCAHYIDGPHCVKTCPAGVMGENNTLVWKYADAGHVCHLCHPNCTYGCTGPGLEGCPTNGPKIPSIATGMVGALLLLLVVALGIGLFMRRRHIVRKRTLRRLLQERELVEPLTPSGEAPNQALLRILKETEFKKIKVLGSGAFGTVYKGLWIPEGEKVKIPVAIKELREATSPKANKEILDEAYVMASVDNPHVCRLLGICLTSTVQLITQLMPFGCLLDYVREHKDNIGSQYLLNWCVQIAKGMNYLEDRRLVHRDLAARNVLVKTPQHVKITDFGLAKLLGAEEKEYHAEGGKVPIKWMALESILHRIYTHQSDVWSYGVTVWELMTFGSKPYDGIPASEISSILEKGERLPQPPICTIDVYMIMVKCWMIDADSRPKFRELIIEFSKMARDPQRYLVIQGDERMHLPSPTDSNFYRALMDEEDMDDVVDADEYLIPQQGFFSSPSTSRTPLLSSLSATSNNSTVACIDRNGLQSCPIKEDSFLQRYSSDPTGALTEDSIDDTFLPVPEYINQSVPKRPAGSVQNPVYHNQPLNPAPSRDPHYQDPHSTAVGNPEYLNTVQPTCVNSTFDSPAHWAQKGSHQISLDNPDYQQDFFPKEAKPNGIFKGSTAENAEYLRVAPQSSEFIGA
D(1A) dopamine receptor (Homo sapiens), sequence (P21728 whole entry): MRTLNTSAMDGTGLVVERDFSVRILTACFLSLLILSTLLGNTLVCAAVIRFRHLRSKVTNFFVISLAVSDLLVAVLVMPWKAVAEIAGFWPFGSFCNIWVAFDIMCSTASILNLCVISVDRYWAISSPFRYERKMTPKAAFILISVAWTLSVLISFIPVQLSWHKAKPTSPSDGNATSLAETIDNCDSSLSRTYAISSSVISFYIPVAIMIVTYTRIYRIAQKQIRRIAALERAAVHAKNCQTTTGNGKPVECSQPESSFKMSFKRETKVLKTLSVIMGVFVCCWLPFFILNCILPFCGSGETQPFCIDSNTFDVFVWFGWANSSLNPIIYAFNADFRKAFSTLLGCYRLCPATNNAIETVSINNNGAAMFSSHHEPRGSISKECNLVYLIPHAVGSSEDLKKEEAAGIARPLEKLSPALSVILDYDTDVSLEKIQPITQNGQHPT

CNC(=O)Nc1ccc2c(c1)CC[C@@]21OC(=O)N(CC(=O)N(Cc2ccc(F)cc2)[C@@H](C)C(F)(F)F)C1=O [A-485]
inactive: residual activity [1] 82% | residual activity [2] 100% | residual activity [3] 100% | residual activity [4] 92% | residual activity [5] 87% | residual activity [6] 93% | residual activity [7] 70% | residual activity [8] 60% | residual activity [9] 90% | inhibition [10] 21% | inhibition [11] 11% | residual activity [12] 96% | inhibition [13] 21.1% | residual activity [14] 77% | residual activity [15] 76% | residual activity [16] 100% | residual activity [17] 88% | residual activity [18] 82% | residual activity [19] 83% | residual activity [20] 70% | residual activity [21] 74% | residual activity [22] 63% | residual activity [23] 95% | residual activity [24] 83% | inhibition [25] 9.97% | residual activity [26] 100% | residual activity [27] 88% | residual activity [28] 80% | residual activity [29] 100% | residual activity [30] 82% | residual activity [31] 89% | inhibition [32] 11.2%

CNC(=O)Nc1ccc2c(c1)[C@@]1(CC2)OC(=O)N(CC(=O)N(Cc2ccc(F)cc2)[C@@H](C)C(F)(F)F)C1=O [A-486]
inactive: residual activity [1] 93% | residual activity [2] 100% | residual activity [3] 100% | residual activity [4] 100% | residual activity [5] 100% | residual activity [6] 87% | residual activity [7] 100% | residual activity [8] 59% | residual activity [9] 100% | inhibition [10] 12% | inhibition [11] -7% | residual activity [12] 95% | inhibition [13] 20.5% | residual activity [14] 81% | residual activity [15] 69% | residual activity [16] 100% | residual activity [17] 100% | residual activity [18] 95% | residual activity [19] 81% | residual activity [20] 96% | residual activity [21] 82% | residual activity [22] 72% | residual activity [23] 100% | residual activity [24] 94% | inhibition [25] 0.29% | residual activity [26] 90% | residual activity [27] 88% | residual activity [28] 65% | residual activity [29] 79% | residual activity [30] 100% | residual activity [31] 100% | inhibition [32] 30.4%
